Results: patent US9403702B1, “Commodity water purifier” (A BETTER LIFE WORLDWIDE, LLC, priority 2015, dated 2016)
Like-named read-outs stand apart in the source and are kept apart here.

Key:
[1] = water, cited from earlier work
[2] = Solubility in water; format: physicochemical; conditions: inventors' finding for CXC
Source text: Although the biological properties of CX are valuable its engineering properties are somewhat challenging. […] However CX is crystalline, and becomes impermeable when formed into a filter. The impermeability renders the filter properties moot. And even if the filter properties remained intact, the presence of CX in effluent would raise the standard for registration with the EPA and for management of the effluent.
In an effort to resolve that problem, U.S. Pat. No. 7,427,409 discloses use of a hydrate, i.e., CX having 1.3 water molecules per chlorhexidine molecules, and the composition is an amorphous material from which a permeable filter can be manufactured. […] The present invention contemplates use of CXH for any value of n for waters of hydration. However the inventors have discovered an unexpected disadvantage of CXH, namely that a small amount of CXH is eroded from the amorphous solid when fluid passes over or through it and thus exits with the effluent. Any water purifier that allows such emissions must be registered with the EPA as a pesticide, as opposed to a purifier, moreover the maker and/or marketer of the filter would be responsible for the ultimate fate and effects of the CXH after it leaves the filter. Moreover CXH decomposes when heated, and the water of hydration evaporates at 96° C. […]

[3] = tested on: gram-positive and gram-negative bacteria; conditions: in vitro; cited from earlier work
[4] = tested on: gram-positive and gram-negative bacteria; conditions: typical; cited from earlier work
[5] = bound to proteins on skin, mucosa, mouth tissue and teeth; cited from earlier work

## [H]/N=C(\N/C(=N/[H])NCCCCCCNC(=N)NC(=N)Nc1ccc(Cl)cc1)Nc1ccc(Cl)cc1 [CXH, chlorhexidine hydrate]
[1]; hydrate
  solubility: essentially insoluble

## chlorhexidine citrate [CXC]
[2]
  solubility: low solubility

## [H]/N=C(\N/C(=N/[H])NCCCCCCNC(=N)NC(=N)Nc1ccc(Cl)cc1)Nc1ccc(Cl)cc1 [CX, N,N″″1,6-Hexanediylbis[N′-(4-chlorophenyl)(imidodicarbonimidic diamide)]]
[1]
  solubility: practically insoluble
[3]
  time to kill virtually all gram-positive and gram-negative bacteria: ≤ 30 s
[4]
  time of uptake of CX into the cells: ≤ 20 s
[5]
  persistence of activity: ≥ 48 h
